Values of other authors in patent publication US8859560B2, “Treating attention deficit hyperactivity disorder with NHE inhibitors” (The Research Foundation of State University of New York, priority 2012, dated 2014).

Assays:
[1] = test system: sodium/hydrogen exchanger (NHE) subtypes; details: for NHE subtype selectivity of inhibition: prior knowledge from Masereel et al. 2003
[2] = pediatric patients, extended-release tablets (Jain et al. 2011)

N=C(N)NC(=O)c1nc(Cl)c(N)nc1N [amiloride]
NHE subtype selectivity of inhibition [1]: limited NHE subtype selectivity

CC(=Cc1cc(C)ccc1C=C(C)C(=O)NC(=N)N)C(=O)N=C(C)C [S3226]
NHE subtype selectivity of inhibition [1]: selectively inhibits NHE3

CC(C)c1ccc(C(=O)NC(=N)N)cc1S(C)(=O)=O [cariporide]
NHE subtype selectivity of inhibition [1]: selectively inhibits NHE1

C=C[C@H]1C[N@@]2CC[C@H]1C[C@H]2[C@H](O)c1ccnc2ccc(OC)cc12 [quinine]
NHE subtype selectivity of inhibition [1]: selectively inhibits NHE7

COc1ccc2c3c([nH]c2c1)C(C)=NCC3 [harmaline]
NHE subtype selectivity of inhibition [1]: selectively inhibits NHE5

Clc1cccc(Cl)c1N=C1NCCN1 [clonidine]
Inhibition of plasma membrane NHEs ([1]; plasma membrane NHEs (NHE1-NHE5)): modest inhibitor
Efficacy as drug for ADHD [2]: moderately efficacious
